# Measurements from ChEMBL document CHEMBL1147000, “Synthesis and evaluation of succinoyl-caprolactam gamma-secretase inhibitors” (Bioorg Med Chem Lett, 2006).
# Test system: HEK293
# Assay: Inhibition of beta-amyloid peptide production in HEK293 cell line
# Format: functional, cell-based
# Details: Homo sapiens
row,SMILES,IC50 [nM]
1,"CCCC(C(N)=O)C(CC(C)C)C(=O)N[C@H]1CCCCN(Cc2cccc(-c3ccc(Cl)cc3Cl)c2)C1=O (single isomer, unassigned)",14
2,"CCCC(C(=O)NO)C(CC(C)C)C(=O)N[C@H]1CCCCN(Cc2cccc(-c3ccccc3OC)c2)C1=O (single isomer, unassigned)",300
3,"CCCC(C(N)=O)C(CC(C)C)C(=O)N[C@H]1CCCCN(Cc2cccc(-c3ccccc3OC)c2)C1=O (single isomer, unassigned)",30
4,"CCCC(C(=O)NO)C(CC(C)C)C(=O)N[C@H]1CCCCN(Cc2cccc(-c3cccc(OC)c3)c2)C1=O (single isomer, unassigned)",600
5,"CCCC(C(=O)NO)C(CC(C)C)C(=O)N[C@H]1CCCCN(Cc2cccc(-c3ccc(C(F)(F)F)cc3)c2)C1=O (single isomer, unassigned)",230
6,"CCCC(C(=O)NO)C(CC(C)C)C(=O)N[C@H]1CCCCN(Cc2cccc(-c3cccc(F)c3)c2)C1=O (single isomer, unassigned)",180
7,"CCCC(C(N)=O)C(CC(C)C)C(=O)N[C@H]1CCCCN(Cc2cccc(-c3cccc(OC)c3)c2)C1=O (single isomer, unassigned)",150
8,"CCCC(C(N)=O)C(CC(C)C)C(=O)N[C@H]1CCCCN(Cc2cccc(-c3ccc(OC)cc3)c2)C1=O (single isomer, unassigned)",8
9,"CCCC(C(N)=O)C(CC(C)C)C(=O)N[C@H]1CCCCN(Cc2cccc(-c3ccc(F)cc3)c2)C1=O (single isomer, unassigned)",191
10,"CCCC(C(N)=O)C(CC(C)C)C(=O)N[C@H]1CCCCN(Cc2ccc(-c3ccc(C(F)(F)F)cc3)cc2)C1=O (single isomer, unassigned)",90
11,"CCCC(C(=O)NO)C(CC(C)C)C(=O)N[C@H]1CCCCN(Cc2cccc(-c3ccc(F)c(Cl)c3)c2)C1=O (single isomer, unassigned)",100
12,"CCCC(C(=O)NO)C(CC(C)C)C(=O)N[C@H]1CCCCN(Cc2cccc(-c3ccc(F)cc3)c2)C1=O (single isomer, unassigned)",470
13,"CCCC(C(=O)NO)C(CC(C)C)C(=O)N[C@H]1CCCCN(Cc2cccc(-c3cccc(NC(C)=O)c3)c2)C1=O (single isomer, unassigned)",> 10000
14,"CCCC(C(=O)NO)C(CC(C)C)C(=O)N[C@H]1CCCCN(Cc2cccc(-c3cccc(C)c3)c2)C1=O (single isomer, unassigned)",510
15,"CCCC(C(N)=O)C(CC(C)C)C(=O)N[C@H]1CCCCN(Cc2cccc(-c3cccc(F)c3)c2)C1=O (single isomer, unassigned)",300
16,"CCCC(C(=O)NO)C(CC(C)C)C(=O)N[C@H]1CCCCN(Cc2cccc(-c3ccccc3-c3cccc4ccccc34)c2)C1=O (single isomer, unassigned)",250
17,"CCCC(C(N)=O)C(CC(C)C)C(=O)N[C@H]1CCCCN(Cc2cccc(-c3ccc(C)cc3)c2)C1=O (single isomer, unassigned)",40
18,"CCCC(C(=O)NO)C(CC(C)C)C(=O)N[C@H]1CCCCN(Cc2cccc(-c3ccc(Cl)cc3Cl)c2)C1=O (single isomer, unassigned)",350
19,"CCCC(C(=O)NO)C(CC(C)C)C(=O)N[C@H]1CCCCN(Cc2cccc(-c3ccc(C)cc3)c2)C1=O (single isomer, unassigned)",260
20,"CCCC(C(=O)NO)C(CC(C)C)C(=O)N[C@H]1CCCCN(Cc2cccc(-c3ccc(OC)cc3)c2)C1=O (single isomer, unassigned)",470
21,"CCCC(C(N)=O)C(CC(C)C)C(=O)N[C@H]1CCCCN(Cc2cccc(-c3ccc(C(F)(F)F)cc3)c2)C1=O (single isomer, unassigned)",10
